This assay concerns the target T1, TLR8 (Homo sapiens, UniProt Q9NR97).
T1 construct: host or cells: HEK293 (HEK-BLUE-hTLR8)
T1 sequence (Q9NR97 27-1041): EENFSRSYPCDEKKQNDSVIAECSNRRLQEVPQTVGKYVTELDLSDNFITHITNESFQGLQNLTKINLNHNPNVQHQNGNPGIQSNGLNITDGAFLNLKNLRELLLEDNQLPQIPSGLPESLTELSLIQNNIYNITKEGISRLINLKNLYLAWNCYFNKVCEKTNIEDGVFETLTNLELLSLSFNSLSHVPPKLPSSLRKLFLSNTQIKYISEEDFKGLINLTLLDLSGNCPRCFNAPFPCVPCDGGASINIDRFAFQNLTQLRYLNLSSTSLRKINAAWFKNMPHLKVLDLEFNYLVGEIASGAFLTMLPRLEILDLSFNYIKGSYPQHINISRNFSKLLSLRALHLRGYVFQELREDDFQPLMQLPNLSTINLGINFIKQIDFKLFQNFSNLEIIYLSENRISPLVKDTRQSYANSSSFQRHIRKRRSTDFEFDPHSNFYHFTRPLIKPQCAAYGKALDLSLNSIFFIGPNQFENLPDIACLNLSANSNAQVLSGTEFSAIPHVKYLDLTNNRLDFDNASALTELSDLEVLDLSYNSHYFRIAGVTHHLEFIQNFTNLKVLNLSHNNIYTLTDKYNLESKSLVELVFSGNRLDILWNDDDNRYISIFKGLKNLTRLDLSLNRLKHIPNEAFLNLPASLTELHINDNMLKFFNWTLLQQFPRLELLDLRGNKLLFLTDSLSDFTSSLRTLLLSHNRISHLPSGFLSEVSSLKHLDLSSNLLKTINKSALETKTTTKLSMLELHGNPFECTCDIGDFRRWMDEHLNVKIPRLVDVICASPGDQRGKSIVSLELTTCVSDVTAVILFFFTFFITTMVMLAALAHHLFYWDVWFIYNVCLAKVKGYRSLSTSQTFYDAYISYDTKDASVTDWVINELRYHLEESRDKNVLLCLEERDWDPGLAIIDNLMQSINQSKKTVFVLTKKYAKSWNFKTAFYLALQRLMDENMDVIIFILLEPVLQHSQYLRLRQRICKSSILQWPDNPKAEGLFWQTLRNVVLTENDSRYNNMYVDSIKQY
Put plainly: TLR8 cell based assay (HEK-BLUE-hTLR8, SEAP reporter linked to NF-κB activation). The conditions noted are these: HEK-BLUE-hTLR8 cells. How it is done: In this assay, the bioactivity of compound of formula Iw as measured using a cell based assay. The assay was performed in human embryonic kidney cells (HEK293) expressing TLR8 or other TLR family members such as TLR4, TLR7 and TLR9 (for selectivity screens). The activity of specific TLR agonists was assessed using the secretory embryonic alkaline phosphatase (SEAP) reporter gene that is linked to NF-κB activation in response to TLR stimulation. The SEAP activity was measured using the Quanti-Blue substrate (InvivoGen) after TLR agonist treatment.
The detailed experimental method is as follow:
HEK-BLUE-hTLR8 cell line was purchased from InvivoGen. The cells were cultured in Dulbecco's Modified Eagle's Media containing 4.5 g/L […] (Sigma-Aldrich) and 10% FBS. The cells were cultured at 37° C., 95% humidity and 5% CO2.
Test concentrations of the compounds ranged from 0.5 nM to 15 μM with 10 points. A known TLR8 agonist was added as positive control and 1 μl of DMSO was added as negative control.
The cells were prepared as follows: The cells were removed from the incubator and growth medium was discarded. The cells were gently rinsed with pre-warmed 10 ml PBS for a T-150 flask. 12 ml pre-warmed growth medium was added, and the cells were detached by tapping the flask. Cell clumps were dissociated by gently pipetting up and down. The cells were counted. Single cell suspension was prepared at 200,000 cells per ml in growth medium and 200 μl of the cell suspension (40,000 cells per well) were immediately added to each well of the plate. The final DMSO concentration of each well was 0.5%.
The cells were cultured and treated with the compounds at 37° C., 5% CO2 for 24 h.
20 μL of the supernatant of each well were added to 180 μL of QUANTI-Blue, and the plates were incubated at 37° C. for 1.5 hour. Optical density was measured using a spectrophotometer at 650 nm (OD data). Activivation was calculated by using the equation below: Activivation %=(Compound OD mean value−DMSO OD mean value)/(positive control OD mean value−DMSO OD mean value)×100
The data were analyzed using the GraphPad to get EC50 values and fitting dose response curves of the compounds.

[1] abbreviates: 24 h treatment, SEAP/QUANTI-Blue readout.

Structures are written as SMILES.

In the case of `CCCN(CCO)C(=O)C1=Cc2ccc(-c3ccc4c(=O)n(CC(N)=O)ccc4c3)cc2N=C(N)C1` [Compound 1-12-1], the concentration for a half-maximal effect (EC50) under setting [1] was in the range of 100 to 1000 nM.
Regarding `CCCN(CCC)C(=O)C1=Cc2ccc(-c3ccc4c(=O)n(Cc5nnn(C)n5)ccc4c3)cc2N=C(N)C1` [Compound 1-2-39], the 50% effective concentration (EC50) was below 100 nM under setting [1] and below 10 nM (bound stated).
`CCCN(CCC)C(=O)C1=Cc2ccc(-c3ccc4c(=O)n(Cc5ccccn5)ncc4c3)cc2N=C(N)C1` [Compound 1-8-20] came in with an EC50 under setting [1] below 100 nM.
Molecule `CCCN(CCC)C(=O)C1=Cc2ccc(-c3ccc4c(=O)n(CC(=O)NC)cnc4c3)cc2N=C(N)C1` [Compound 1-7-3] registered an EC50 under setting [1] below 100 nM.
The same measure, in the same setting: under `CCCN(CCC)C(=O)C1=Cc2c(F)cc(-c3ccc4c(=O)n(CCS(C)(=O)=O)ccc4c3)cc2N=C(N)C1` [Compound 1-10-4] stands below 100 nM; under `CCCN(CCC)C(=O)C1=Cc2ccc(-c3ccc4c(=O)n(Cc5nnn[nH]5)ccc4c3)cc2N=C(N)C1` [Compound 1-2-38], 1000 to 10000 nM.
The molecule `CCCN(CCC)C(=O)C1=Cc2ccc(-c3ccc4c(=O)n(CC[S+](C)[O-])ncc4c3)cc2N=C(N)C1` (stereo not drawn) [Compound 1-8-11] displayed an EC50 under setting [1] below 100 nM.
Turning to `[2H]c1cc(-c2ccc3c(=O)n(CCS(C)(=O)=O)ncc3c2)cc2c1C=C(C(=O)N(CCC)CCC)CC(N)=N2` [Compound 2-2-4], the 50% effective concentration (EC50) runs as follows: under setting [1], below 100 nM; (bound stated) below 10 nM.
Regarding `CCCN(CCC)C(=O)C1=Cc2ccc(-c3ccc4c(=O)n(CCNS(C)(=O)=O)cnc4c3)cc2N=C(N)C1` [Compound 1-7-6], the EC50 under setting [1] lay within 100 to 1000 nM.
Regarding `CCCN(CCC)C(=O)C1=Cc2ccc(-c3ccc4c(=O)n(CC(=O)O)ccc4c3)cc2N=C(N)C1` [Compound 1-2-42], under setting [1], the EC50 lay within 1000 to 10000 nM.
Same read-out and setting: under `CCCN(CCC)C(=O)C1=Cc2ccc(-c3ccc4c(=O)n(CCP(C)(=O)OCC)ccc4c3)cc2N=C(N)C1` (stereo not drawn) [Compound 1-2-11] stands below 100 nM.
On to `CCCN(CCC)C(=O)C1=Cc2ccc(-c3ccc4c(=O)n(Cc5nc(C)cc(C)n5)ncc4c3)cc2N=C(N)C1` [Compound 1-8-17], for which the EC50 runs as follows: under setting [1], below 100 nM; (bound stated) below 10 nM.
Turning to `CCCN(CCC)C(=O)C1=Cc2c(Cl)cc(-c3ccc4c(=O)n(CCS(C)(=O)=O)ncc4c3)cc2N=C(N)C1` [Compound 2-2-3], the 50% effective concentration (EC50) under setting [1] was in the range of 100 to 1000 nM.
In the case of `CCCN(CCC)C(=O)C1=Cc2ccc(-c3ccc4c(=S)n(Cc5cnccn5)ccc4c3)cc2N=C(N)C1` [Compound 1-14-5], the concentration giving a half-maximal response (EC50) under setting [1] is below 100 nM.
Same read-out and setting: under `CCCN(CCC)C(=O)C1=Cc2ccc(-c3ccc4c(=O)n(CCNS(N)(=O)=O)ccc4c3)cc2N=C(N)C1` [Compound 1-2-20] stands 100 to 1000 nM.
Turning to `CCCN(CCC)C(=O)C1=Cc2ccc(-c3ccc4c(=O)n(CCNS(C)(=O)=O)ncc4c3)cc2N=C(N)C1` [Compound 1-8-8], the EC50 under setting [1] is below 100 nM.
In the case of `CCCN(CCC)C(=O)C1=Cc2ccc(-c3ccc4c(=O)n(CCc5cnccn5)ccc4c3)cc2N=C(N)C1` [Compound 1-2-47], the 50% effective concentration (EC50) under setting [1] lay within 100 to 1000 nM.
`CCCN(CCC)C(=O)C1=Cc2ccc(-c3ccc4c(=O)n(CC(=O)NCC)ccc4c3)cc2N=C(N)C1` [Compound 1-2-25] gave a concentration giving a half-maximal response (EC50) under setting [1] below 100 nM.
For `CCCN(CCC)C(=O)C1=Cc2ccc(-c3ccc4c(=O)n(CCO)ccc4c3)cc2N=C(N)C1` [Compound 1-2-6], under setting [1], the EC50 is below 100 nM.
For `CCCN(CCC)C(=O)C1=Cc2c(cc(-c3ccc4c(=O)n(CCS(C)(=O)=O)ncc4c3)cc2OC)N=C(N)C1` [Compound 2-2-1], the 50% effective concentration (EC50) under setting [1] fell in the range of 100 to 1000 nM.
Still for that read-out and setting: under `CCCN(CCC)C(=O)C1=Cc2ccc(-c3ccc4c(n3)CN(CCO)C4=O)cc2N=C(N)C1` [Compound 1-6-2] stands 100 to 1000 nM.
`CCCN(CCC)C(=O)C1=Cc2ccc(-c3ccc4c(=O)n(CC(N)=O)c(=O)n(C)c4c3)cc2N=C(N)C1` [Compound 1-9-3]: the concentration giving a half-maximal response (EC50) under setting [1] lay in the range of 100 to 1000 nM.
Same read-out and setting: under `CCCN(CCC)C(=O)C1=Cc2ccc(-c3ccc4c(=O)n(Cc5cc[nH]n5)ccc4c3)cc2N=C(N)C1` [Compound 1-2-34] stands below 100 nM.
`CCCN(CCC)C(=O)C1=Cc2ccc(-c3ccc4c(=O)n(CCCO)ccc4c3)cc2N=C(N)C1` [Compound 1-2-7] came in with a concentration giving a half-maximal response (EC50) under setting [1] of 100 to 1000 nM.
On to `CCCN(CCC)C(=O)C1=Cc2ccc(-c3ccc4c(=O)n(CC)ccc4c3)cc2N=C(N)C1` [Compound 1-2-3], for which the concentration giving a half-maximal response (EC50) under setting [1] fell in the range of 100 to 1000 nM.
`CCCN(CCC)C(=O)C1=Cc2ccc(-c3ccc4c(=S)n(Cc5ncccn5)ncc4c3)cc2N=C(N)C1` [Compound 1-14-1]: the EC50 runs as follows: under setting [1], below 100 nM; (bound stated) below 10 nM.
`CCCN(CCC)C(=O)C1=Cc2ccc(-c3ccc4c(=S)n(Cc5cnccn5)ncc4c3)cc2N=C(N)C1` [Compound 1-14-6] registered an EC50 under setting [1] below 100 nM.
The molecule `CCCN(CCC)C(=O)C1=Cc2ccc(-c3ccc4c(=O)n(CCn5cccn5)ncc4c3)cc2N=C(N)C1` [Compound 1-8-13] gave an EC50 under setting [1] below 100 nM.
For `CCCN(CCC)C(=O)C1=Cc2ccc(-c3ccc4c(=O)n(CCCS(C)(=O)=O)ncc4c3)cc2N=C(N)C1` [Compound 1-8-6], the EC50 under setting [1] is below 100 nM and the EC50 (bound stated) was below 10 nM.
`CCCN(CCC)C(=O)C1=Cc2c(Cl)cc(-c3ccc4c(=O)n(Cc5ncccn5)ncc4c3)cc2N=C(N)C1` [Compound 2-3-1] returned an EC50 under setting [1] below 100 nM.
`CCCN(CCC)C(=O)C1=Cc2ccc(-c3ccc4c(=O)n(Cc5nnc(C)o5)ccc4c3)cc2N=C(N)C1` [Compound 1-2-30]: the concentration giving a half-maximal response (EC50) under setting [1] was below 100 nM.
Consider `CCCN(CCC)C(=O)C1=Cc2ccc(-c3ccc4c(=O)n(CCP(C)(=O)OCC)ncc4c3)cc2N=C(N)C1` (stereo not drawn) [Compound 1-8-18], for which the concentration for a half-maximal effect (EC50) under setting [1] was below 100 nM.
For the molecule `CCCN(CCC)C(=O)C1=Cc2ccc(-c3ccc4c(=O)n(CC)c(C)cc4c3)cc2N=C(N)C1` [Compound 1-2-2], the EC50 under setting [1] lay in the range of 100 to 1000 nM.
In turn, `CCCN(CCC)C(=O)C1=Cc2c(F)cc(-c3ccc4c(=O)n(CC(=O)NC)ncc4c3)cc2N=C(N)C1` [Compound 1-10-6] displayed an EC50 under setting [1] below 100 nM.
For `CCCCn1ccc2cc(-c3ccc4c(c3)N=C(N)CC(C(=O)N(CCC)CCC)=C4)ccc2c1=O` [Compound 1-2-27], under setting [1], the half-maximal effective concentration (EC50) fell in the range of 100 to 1000 nM.
As to `CCCN(CCC)C(=O)C1=Cc2c(F)cc(-c3ccc4c(=O)n(CC(=O)NC)ccc4c3)cc2N=C(N)C1` [Compound 1-10-3], the EC50 under setting [1] was below 100 nM.
As for `CCCN(CCC)C(=O)C1=Cc2ccc(-c3ccc4c(=O)n(Cc5nccs5)ncc4c3)cc2N=C(N)C1` [Compound 1-8-10], the EC50 under setting [1] is below 100 nM.
Take `CCCN(CCC)C(=O)C1=Cc2ccc(-c3ccc4c(c3)CCN(CC)C4=O)cc2N=C(N)C1` [Compound 1-4-1]: the EC50 under setting [1] lay in the range of 100 to 1000 nM.
As to `CCCN(CCC)C(=O)C1=Cc2c(C)cc(-c3ccc4c(=O)n(Cc5ncccn5)ncc4c3)cc2N=C(N)C1` [Compound 2-3-2], the EC50 was below 100 nM under setting [1] and below 10 nM (bound stated).
In the case of `CCCN(CCC)C(=O)C1=Cc2ccc(-c3cc4c(=O)n(CC)ccc4n3C)cc2N=C(N)C1` [Compound 1-5-1], the concentration for a half-maximal effect (EC50) under setting [1] lay within 1000 to 10000 nM.
For the molecule `CCCN(CCC)C(=O)C1=Cc2ccc(-c3ccc4c(=O)n(Cc5nc(OC)cc(OC)n5)ccc4c3)cc2N=C(N)C1` [Compound 1-2-46], the EC50 under setting [1] was below 100 nM.
For the molecule `CCCN(CCC)C(=O)C1=Cc2ccc(-c3ccc4c(=O)n(CC(C)(C)O)c(=O)n(C)c4c3)cc2N=C(N)C1` [Compound 1-9-5], the EC50 under setting [1] was in the range of 100 to 1000 nM.

Source of the values: patent publication US10669252B2, “Benzazepine derivative, preparation method, pharmaceutical composition and use thereof” (SHANGHAI DE NOVO PHARMATECH CO., LTD., priority 2016, dated 2020).
